Values quoted from earlier work as cited in US11166974B2, “Ophthalmic solution comprising Diquafosol” (Santen Pharmaceutical Co., Ltd., priority 2012, dated 2021).

System: corneal epithelium disorder of dry eye patients
Conditions: instillation of an ophthalmic solution; NPD 1

O=c1ccn([C@@H]2O[C@H](COP(=O)([O-])OP(=O)([O-])OP(=O)([O-])OP(=O)([O-])OC[C@H]3O[C@@H](n4ccc(=O)[nH]c4=O)[C@H](O)[C@@H]3O)[C@@H](O)[C@H]2O)c(=O)[nH]1.[Na+].[Na+].[Na+].[Na+] [diquafosol tetrasodium salt]
corneal epithelium disorder of dry eye patients: improved corneal epithelium disorder
